Data reported in patent US11325938B2, “CD73 inhibitors” (ORIC Pharmaceuticals, Inc., priority 2018, dated 2022).

These molecules were tested against CD73 (Homo sapiens (Human), UniProt P21589) (assay: Biochemical assay: inhibition of CD73 activity (AMP hydrolysis, Malachite Green readout)). Settings: CD73 0.3208 nM, AMP 15 μM, 25 mM Tris-HCl pH 7.4, RT, absorbance 620 nm.
Chain of CD73 (P21589 27-574): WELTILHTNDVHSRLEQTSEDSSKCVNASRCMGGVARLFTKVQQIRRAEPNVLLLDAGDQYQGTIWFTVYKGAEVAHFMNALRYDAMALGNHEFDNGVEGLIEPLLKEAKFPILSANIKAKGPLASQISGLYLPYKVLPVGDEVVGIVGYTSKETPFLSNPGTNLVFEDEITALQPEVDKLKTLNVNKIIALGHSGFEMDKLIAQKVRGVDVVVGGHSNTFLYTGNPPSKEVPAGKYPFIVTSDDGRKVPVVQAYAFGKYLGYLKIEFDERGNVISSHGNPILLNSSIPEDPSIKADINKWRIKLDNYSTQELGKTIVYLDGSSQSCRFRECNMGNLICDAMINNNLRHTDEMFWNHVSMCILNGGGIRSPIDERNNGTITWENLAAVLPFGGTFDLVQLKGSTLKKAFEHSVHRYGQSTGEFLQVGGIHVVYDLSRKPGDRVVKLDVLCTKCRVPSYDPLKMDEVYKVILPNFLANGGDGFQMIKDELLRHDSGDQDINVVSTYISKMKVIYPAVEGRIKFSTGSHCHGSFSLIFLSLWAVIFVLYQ
Method in brief: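 Human CD73 (320 pM final) preincubated 15 min at RT with compounds (10-point ½-log titration from 100 μM, duplicates) in 25 mM Tris-HCl pH 7.4, 5 mM MgCl2, 0.01% Brij-35, 0.01% BSA. 15 μM AMP added, 10 min at RT; released phosphate read by Malachite Green absorbance; IC50 determined.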
An IC50 of no more than 100 nM was found for `CC1(Nc2nc(Cl)nc3c2cnn3[C@@H]2O[C@H](CO[C@](C)(CO)P(=O)(O)O)[C@@H](O)[C@H]2O)CCCC1` [Example 106, ((S)-2-(((2R,3S,4R,5R)-5-(6-chloro-4-((1-methylcyclopentyl)amino)-1H-pyrazolo[3,4-d]pyrimidin-1-yl)-3,4-dihydroxytetrahydrofuran-2-yl)methoxy)-1-hydroxypropan-2-yl)phosphonic acid] in this work. An IC50 of no more than 100 nM was found for `CS(=O)(=O)CC(CO)(OC[C@H]1O[C@@H](n2ncc3c(NC4CCCC4)nc(Cl)nc32)[C@H](O)[C@@H]1O)P(=O)(O)O` (stereo partly drawn) [Example 107, (2-(((2R,3S,4R,5R)-5-(6-chloro-4-(cyclopentylamino)-1H-pyrazolo[3,4-d]pyrimidin-1-yl)-3,4-dihydroxytetrahydrofuran-2-yl)methoxy)-1-hydroxy-3-(methylsulfonyl)propan-2-yl)phosphonic acid] in this work. An IC50 of no more than 100 nM was found for `C[C@](CO)(OC[C@H]1O[C@@H](n2ncc3c(N[C@@H]4CCc5ccc(F)cc54)nc(Cl)nc32)[C@H](O)[C@@H]1O)P(=O)(O)O` [Example 108, ((S)-2-(((2R,3S,4R,5R)-5-(6-chloro-4-(((R)-6-fluoro-2,3-dihydroxy-1H-inden-1-yl)amino)-1H-pyrazolo[3,4-d]pyrimidin-1-yl)-3,4-dihydroxytetrahydrofuran-2-yl)methoxy)-1-hydroxypropan-2-yl)phosphonic acid] in this work. An IC50 of no more than 100 nM was found for `COC[C@@](C)(OC[C@H]1O[C@@H](n2nnc3c(NC4CCCC4)nc(Cl)nc32)[C@H](O)[C@@H]1O)P(=O)(O)O` [Example 109, ((S)-2-(((2R,3S,4R,5R)-5-(5-chloro-7-(cyclopentylamino)-3H-[1,2,3]triazolo[4,5-d]pyrimidin-3-yl)-3,4-dihydroxytetrahydrofuran-2-yl)methoxy)-1-methoxypropan-2-yl)phosphonic acid] in this work. An IC50 of no more than 100 nM was found for `COC[C@](C)(OC[C@H]1O[C@@H](n2nnc3c(NC4CCCC4)nc(Cl)nc32)[C@H](O)[C@@H]1O)P(=O)(O)O` [Example 110, ((R)-2-(((2R,3S,4R,5R)-5-(5-chloro-7-(cyclopentylamino)-3H-[1,2,3]triazolo[4,5-d]pyrimidin-3-yl)-3,4-dihydroxytetrahydrofuran-2-yl)methoxy)-1-methoxypropan-2-yl)phosphonic acid] in this work. An IC50 of no more than 100 nM was found for `COCC(C)(OC[C@H]1O[C@@H](n2ncc3c(NC4CCCC4)cc(Cl)nc32)[C@H](O)[C@@H]1O)P(=O)(O)O` (stereo partly drawn) [Example 111, (2-(((2R,3S,4R,5R)-5-(6-chloro-4-(cyclopentylamino)-1H-pyrazolo[3,4-b]pyridin-1-yl)-3,4-dihydroxytetrahydrofuran-2-yl)methoxy)-1-methoxypropan-2-yl)phosphonic acid] in this work. An IC50 of 100 to 1000 nM was found for `CCP(=O)(O)C(CO)(CO)OC[C@H]1O[C@@H](n2ncc3c(NC4CCCC4)nc(Cl)nc32)[C@H](O)[C@@H]1O` [Example 112, (2-(((2R,3S,4R,5R)-5-(6-chloro-4-(cyclopentylamino)-1H-pyrazolo[3,4-d]pyrimidin-1-yl)-3,4-dihydroxytetrahydrofuran-2-yl)methoxy)-1,3-dihydroxypropan-2-yl)(ethyl)phosphinic acid] in this work. An IC50 of no more than 100 nM was found for `O=P(O)(O)C(CO)(CO)OC[C@H]1O[C@@H](n2ncc3c(N[C@@H]4CCc5ccccc54)nc(Cl)nc32)[C@H](O)[C@@H]1O` [Example 113, (2-(((2R,3S,4R,5R)-5-(6-chloro-4-(((R)-2,3-dihydro-1H-inden-1-yl)amino)-1H-pyrazolo[3,4-d]pyrimidin-1-yl)-3,4-dihydroxytetrahydrofuran-2-yl)methoxy)-1,3-dihydroxypropan-2-yl)phosphonic acid] in this work. An IC50 of no more than 100 nM was found for `CC(C)OC[C@](CO)(OC[C@H]1O[C@@H](n2ncc3c(NC4CCCC4)nc(Cl)nc32)[C@H](O)[C@@H]1O)P(=O)(O)O` [Example 114, ((R)-2-(((2R,3S,4R,5R)-5-(6-chloro-4-(cyclopentylamino)-1H-pyrazolo[3,4-d]pyrimidin-1-yl)-3,4-dihydroxytetrahydrofuran-2-yl)methoxy)-1-hydroxy-3-isopropoxypropan-2-yl)phosphonic acid] in this work. An IC50 of no more than 100 nM was found for `O=P(O)(O)C(CO)(CO)OC[C@H]1O[C@@H](n2ncc3c(NC4CCC4)nc(Cl)nc32)[C@H](O)[C@@H]1O` [Example 116, (2-(((2R,3S,4R,5R)-5-(6-chloro-4-(cyclobutylamino)-1H-pyrazolo[3,4-d]pyrimidin-1-yl)-3,4-dihydroxytetrahydrofuran-2-yl)methoxy)-1,3-dihydroxypropan-2-yl)phosphonic acid] in this work. An IC50 of no more than 100 nM was found for `O=P(O)(O)C(CO)OC[C@H]1O[C@@H](n2ccc3c(NC4CCCC4)nc(Cl)nc32)[C@H](O)[C@@H]1O` (stereo partly drawn) [Example 117, (1-(((2R,3S,4R,5R)-5-(2-chloro-4-(cyclopentylamino)-7H-pyrrolo[2,3-d]pyrimidin-7-yl)-3,4-dihydroxytetrahydrofuran-2-yl)methoxy)-2-hydroxyethyl)phosphonic acid] in this work. An IC50 of no more than 100 nM was found for `C[C@@](Cc1nn[nH]n1)(OC[C@H]1O[C@@H](n2ncc3c(NC4CCCC4)nc(Cl)nc32)[C@H](O)[C@@H]1O)P(=O)(O)O` [Example 119, ((R)-2-(((2R,3S,4R,5R)-5-(6-chloro-4-(cyclopentylamino)-1H-pyrazolo[3,4-d]pyrimidin-1-yl)-3,4-dihydroxytetrahydrofuran-2-yl)methoxy)-1-(2H-tetrazol-5-yl)propan-2-yl)phosphonic acid] in this work. An IC50 of no more than 100 nM was found for `C[C@](Cc1nn[nH]n1)(OC[C@H]1O[C@@H](n2ncc3c(NC4CCCC4)nc(Cl)nc32)[C@H](O)[C@@H]1O)P(=O)(O)O` [Example 120, ((S)-2-(((2R,3S,4R,5R)-5-(6-chloro-4-(cyclopentylamino)-1H-pyrazolo[3,4-d]pyrimidin-1-yl)-3,4-dihydroxytetrahydrofuran-2-yl)methoxy)-1-(2H-tetrazol-5-yl)propan-2-yl)phosphonic acid] in this work. An IC50 of no more than 100 nM was found for `C[C@](CO)(OC[C@H]1O[C@@H](n2ncc3c(N[C@@H]4CCc5cc(F)ccc54)nc(Cl)nc32)[C@H](O)[C@@H]1O)P(=O)(O)O` [Example 121, ((S)-2-(((2R,3S,4R,5R)-5-(6-chloro-4-(((R)-5-fluoro-2,3-dihydro-1H-inden-1-yl)amino)-1H-pyrazolo[3,4-d]pyrimidin-1-yl)-3,4-dihydroxytetrahydrofuran-2-yl)methoxy)-1-hydroxypropan-2-yl)phosphonic acid] in this work. An IC50 of no more than 100 nM was found for `C[C@@](CO)(OC[C@H]1O[C@@H](n2ncc3c(N[C@@H]4CCc5cc(F)ccc54)nc(Cl)nc32)[C@H](O)[C@@H]1O)P(=O)(O)O` [Example 122, ((R)-2-(((2R,3S,4R,5R)-5-(6-chloro-4-(((R)-5-fluoro-2,3-dihydro-1H-inden-1-yl)amino)-1H-pyrazolo[3,4-d]pyrimidin-1-yl)-3,4-dihydroxytetrahydrofuran-2-yl)methoxy)-1-hydroxypropan-2-yl)phosphonic acid] in this work. An IC50 of no more than 100 nM was found for `C[C@](CO)(OC[C@H]1O[C@@H](n2ncc3c(NC4CC5(CCC5)C4)nc(Cl)nc32)[C@H](O)[C@@H]1O)P(=O)(O)O` [Example 123, ((S)-2-(((2R,3S,4R,5R)-5-(6-chloro-4-(spiro[3.3]heptan-2-ylamino)-1H-pyrazolo[3,4-d]pyrimidin-1-yl)-3,4-dihydroxytetrahydrofuran-2-yl)methoxy)-1-hydroxypropan-2-yl)phosphonic acid] in this work. An IC50 of no more than 100 nM was found for `C[C@@](COCCO)(OC[C@H]1O[C@@H](n2ncc3c(NC4CCCC4)nc(Cl)nc32)[C@H](O)[C@@H]1O)P(=O)(O)O` [Example 124, ((R)-2-(((2R,3S,4R,5R)-5-(6-chloro-4-(cyclopentylamino)-1H-pyrazolo[3,4-d]pyrimidin-1-yl)-3,4-dihydroxytetrahydrofuran-2-yl)methoxy)-1-(2-hydroxyethoxy)propan-2-yl)phosphonic acid] in this work. An IC50 of no more than 100 nM was found for `COCC(COC)(OC[C@H]1O[C@@H](n2ncc3c(NCC4CC4)nc(Cl)nc32)[C@H](O)[C@@H]1O)P(=O)(O)O` [Example 125, (2-(((2R,3S,4R,5R)-5-(6-chloro-4-((cyclopropylmethyl)amino)-1H-pyrazolo[3,4-d]pyrimidin-1-yl)-3,4-dihydroxytetrahydrofuran-2-yl)methoxy)-1,3-dimethoxypropan-2-yl)phosphonic acid] in this work. An IC50 of no more than 100 nM was found for `C[C@@](CO)(OC[C@H]1O[C@@H](n2ncc3c(NC4CC5(CCC5)C4)nc(Cl)nc32)[C@H](O)[C@@H]1O)P(=O)(O)O` [Example 126, ((R)-2-(((2R,3S,4R,5R)-5-(6-chloro-4-(spiro[3.3]heptan-2-ylamino)-1H-pyrazolo[3,4-d]pyrimidin-1-yl)-3,4-dihydroxytetrahydrofuran-2-yl)methoxy)-1-hydroxypropan-2-yl)phosphonic acid] in this work. An IC50 of no more than 100 nM was found for `C[C@](CO)(OC[C@H]1O[C@@H](n2ncc3c(NC4CCCC4)nc(CO)nc32)[C@H](O)[C@@H]1O)P(=O)(O)O` [Example 127, ((S)-2-(((2R,3S,4R,5R)-5-(4-(cyclopentylamino)-6-(hydroxymethyl)-1H-pyrazolo[3,4-d]pyrimidin-1-yl)-3,4-dihydroxytetrahydrofuran-2-yl)methoxy)-1-hydroxypropan-2-yl)phosphonic acid] in this work. An IC50 of no more than 100 nM was found for `C[C@@](CO)(OC[C@H]1O[C@@H](n2ncc3c(NC4CCCC4)nc(CO)nc32)[C@H](O)[C@@H]1O)P(=O)(O)O` [Example 128, ((R)-2-(((2R,3S,4R,5R)-5-(4-(cyclopentylamino)-6-(hydroxymethyl)-1H-pyrazolo[3,4-d]pyrimidin-1-yl)-3,4-dihydroxytetrahydrofuran-2-yl)methoxy)-1-hydroxypropan-2-yl)phosphonic acid] in this work. An IC50 of no more than 100 nM was found for `COC[C@@](C)(OC[C@H]1O[C@@H](n2ncc3c(NCC4CC4)nc(Cl)nc32)[C@H](O)[C@@H]1O)P(=O)(O)O` [Example 129, ((S)-2-(((2R,3S,4R,5R)-5-(6-chloro-4-((cyclopropylmethyl)amino)-1H-pyrazolo[3,4-d]pyrimidin-1-yl)-3,4-dihydroxytetrahydrofuran-2-yl)methoxy)-1-methoxypropan-2-yl)phosphonic acid] in this work.
